10 molecules from ChEMBL document CHEMBL1201862, “PubChem BioAssay data set” (2004) can be followed below.

Test systems include MDA-MB-435; SF-539; NCI/ADR-RES; SR; DU-145; EKVX; BT-549; ACHN; SF-268; SK-MEL-2; SF-295; Malme-3M; HCT-15; OVCAR-8; OVCAR-5; UACC-62; NCI-H23; HCT-116; RXF 393; MDA-N.
Assay in all cases: growth of human tumour cells (NCI), 48 h

SMILES strings stand for the structures.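 Results reflect a 48-hour exposure of cells in 96-well plates to compound at five concentrations. Abbreviation: GI50, concentration required for 50% inhibition of growth.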 The source made the active and inactive calls. No stated cut-off is given here; in the data, active = GI50 up to about 1.1 µM and inactive = higher. Some results are limits rather than exact numbers.

With `C=CCOc1ccc(C(=N/NC(=O)c2ccccc2)/N=N/c2ccccc2)cc1OC`, the GI50 in the experiment on MDA-MB-435 was > 100 µM (inactive); in the experiment on SF-539, > 100 µM (inactive); in the experiment with NCI/ADR-RES, 84.3 µM (inactive); in the experiment on SR it was 77.1 µM (inactive); in the experiment with DU-145, > 100 µM (inactive); in the experiment with EKVX, > 100 µM (inactive). For the same molecule, the GI50 in the experiment on BT-549 is 42.5 µM (inactive); in the experiment with ACHN, > 100 µM (inactive); in the experiment on SF-268, > 100 µM (inactive); with SK-MEL-2, > 100 µM (inactive); in the experiment with SF-295, > 100 µM (inactive); in the experiment on Malme-3M, > 100 µM (inactive). Further, the GI50 with HCT-15 is 63.8 µM; with OVCAR-8, 65.3 µM (inactive); in the experiment on OVCAR-5, > 100 µM (inactive); in the experiment with UACC-62 it was 71.1 µM (inactive); in the experiment on NCI-H23 it was 73.8 µM (inactive); in the experiment with HCT-116 it was 67.9 µM (inactive). In addition, the GI50 in the experiment on RXF 393 and with MDA-N was > 100 µM (inactive) in each case.

As to `O=C(Cc1nc2ccccc2[nH]c1=O)c1c[nH]c2ccccc12`, the GI50 in the experiment on MDA-MB-435 is 13.7 µM (inactive); with SF-539, 19.2 µM (inactive); in the experiment with NCI/ADR-RES, 8.65 µM (inactive); with SR it was 4.42 µM (inactive); in the experiment with DU-145, 15.2 µM (inactive); in the experiment on EKVX, 29.6 µM (inactive). The GI50 was 12.2 µM (inactive) in the experiment with BT-549; 10.5 µM (inactive) with ACHN; > 100 µM (inactive) with SF-268; 10.1 µM (inactive) in the experiment with SK-MEL-2; 9.04 µM (inactive) with SF-295; 32.9 µM (inactive) with Malme-3M. For the same molecule, the GI50 in the experiment with HCT-15 is 8.18 µM; with OVCAR-8 it was 14.1 µM (inactive); in the experiment on OVCAR-5, 23.6 µM (inactive); in the experiment with UACC-62 it was 13.6 µM (inactive); in the experiment on NCI-H23, 20.4 µM (inactive); in the experiment with HCT-116, 13.8 µM (inactive). For the same molecule, the values for the GI50 with RXF 393 and with MDA-N were 17.5 µM (inactive) and 12.1 µM (inactive), respectively.

As for `COc1cc2c(cc1OCCCC(=O)Nc1cc(C(=O)Nc3cc(C(=O)Nc4cc(C(=O)NCCCN(C)C)n(C)c4)n(C)c3)n(C)c1)N=C[C@@H]1CCCN1C2=O`, the GI50 in the experiment on MDA-MB-435 is 1.79 µM (inactive); with SF-539 it was 3.42 µM (inactive); in the experiment on NCI/ADR-RES it was 2.22 µM (inactive); in the experiment with SR, 0.367 µM (active); in the experiment with DU-145 it was 3.47 µM (inactive); with EKVX, 2.89 µM (inactive). Besides, the GI50 with BT-549 was 1.96 µM (inactive); with ACHN, 1.61 µM (inactive); in the experiment on SF-268 it was 1.63 µM (inactive); in the experiment on SK-MEL-2, 2.53 µM (inactive); in the experiment with SF-295, 12.2 µM (inactive); with Malme-3M, 1.82 µM (inactive). Besides, the GI50 with HCT-15 was 1.82 µM; with OVCAR-8 it was 1.79 µM (inactive); in the experiment on OVCAR-5 it was 3.16 µM (inactive); in the experiment on UACC-62, 2.19 µM (inactive); with NCI-H23, 1.77 µM (inactive); in the experiment with HCT-116, 1.69 µM (inactive). Besides, the GI50 was 1.66 µM (inactive) in the experiment with RXF 393 and 1.84 µM (inactive) with MDA-N.

As to `CCC(C)C(N)C(=O)N/N=C\c1c2c(nc3ccccc13)-c1cc3c(c(=O)n1C2)COC(=O)[C@]3(O)CC` (stereo not given in full), the GI50 in the experiment on MDA-MB-435 is 0.468 µM (active); with SF-539 it was < 0.01 µM (active); in the experiment on NCI/ADR-RES, 0.232 µM (active); in the experiment with SR it was < 0.01 µM (active); with DU-145 it was 0.0158 µM (active); with EKVX, 1.89 µM (inactive). For the same molecule, the GI50 in the experiment with BT-549 is 0.174 µM (active); with ACHN, < 0.0117 µM (active); in the experiment on SF-268, < 0.01 µM (active); in the experiment on SK-MEL-2, 1.08 µM (active); in the experiment on SF-295, 0.043 µM (active); in the experiment on Malme-3M, 0.438 µM (active). The GI50 with HCT-15 was 0.356 µM; with OVCAR-8, 0.0453 µM (active); in the experiment on OVCAR-5, 1.52 µM (inactive); in the experiment on UACC-62, < 0.01 µM (active); with NCI-H23, 0.0112 µM (active); in the experiment with HCT-116, 0.0536 µM (active). In addition, the GI50 in the experiment with RXF 393 was < 0.0284 µM (active); in the experiment on MDA-N, 0.46 µM (active).

On to `CC(C)=CCC[C@@H](C)c1c2ncc[nH]c-2c(C)c(=O)c1O`, for which the GI50 in the experiment on MDA-MB-435 was 41.9 µM (inactive); with SF-539, 22.2 µM (inactive); in the experiment with NCI/ADR-RES, 4.49 µM (inactive); in the experiment with SR, 51.3 µM (inactive); in the experiment on DU-145, 31.6 µM (inactive); in the experiment on EKVX it was 26.2 µM (inactive). The GI50 was 30.8 µM (inactive) in the experiment on BT-549; 12.4 µM (inactive) in the experiment on ACHN; 15.2 µM (inactive) in the experiment with SF-268; 18.6 µM (inactive) with SK-MEL-2; 16.5 µM (inactive) in the experiment with SF-295; 13.8 µM (inactive) in the experiment with Malme-3M. Moreover, the GI50 with HCT-15 is 6.46 µM; with OVCAR-8, 10 µM (inactive); with OVCAR-5 it was 45.6 µM (inactive); in the experiment on UACC-62 it was 18.7 µM (inactive); with NCI-H23, 22.4 µM (inactive); in the experiment on HCT-116, 37.1 µM (inactive). Besides, the GI50 in the experiment with RXF 393 was 24.6 µM (inactive); in the experiment with MDA-N, 37.8 µM (inactive).

Consider `O=C(/C=C\Nc1ccccc1O)C(F)(F)F`, for which the GI50 in the experiment with MDA-MB-435 was 60.1 µM (inactive); in the experiment with SF-539, > 100 µM (inactive); with NCI/ADR-RES, > 100 µM (inactive); in the experiment with SR, 36.3 µM (inactive); in the experiment on DU-145, > 100 µM (inactive); in the experiment with EKVX, 51.2 µM (inactive). In addition, the GI50 in the experiment with BT-549 was > 100 µM (inactive); with ACHN, 67.8 µM (inactive); with SF-268, > 100 µM (inactive); with SK-MEL-2 it was 69 µM (inactive); in the experiment on SF-295, 50 µM (inactive); with Malme-3M it was 26.5 µM (inactive). In addition, the GI50 was 40.8 µM in the experiment with HCT-15; 90.4 µM (inactive) in the experiment on OVCAR-8; > 100 µM (inactive) with OVCAR-5; 45.4 µM (inactive) in the experiment with UACC-62; 78.3 µM (inactive) in the experiment with NCI-H23; 29.5 µM (inactive) with HCT-116. For the same molecule, the GI50 was > 100 µM (inactive) in the experiment on RXF 393 and 43 µM (inactive) in the experiment with MDA-N.

With `O=C(O)C1(Cc2ccc3c(c2)CCC3)Cc2ccccc2C1=O` (stereo not given), the GI50 is > 100 µM (inactive) in the experiment with MDA-MB-435; 49.1 µM (inactive) with SF-539; 58.1 µM (inactive) in the experiment with NCI/ADR-RES; 59 µM (inactive) in the experiment on SR; 75.3 µM (inactive) in the experiment on DU-145; 63.2 µM (inactive) in the experiment with EKVX. Moreover, the GI50 was 37.8 µM (inactive) in the experiment on BT-549; 45.4 µM (inactive) in the experiment on ACHN; 63.8 µM (inactive) in the experiment with SF-268; 46 µM (inactive) in the experiment on SK-MEL-2; 33.6 µM (inactive) with SF-295; > 100 µM (inactive) with Malme-3M. Besides, the GI50 in the experiment with HCT-15 is 34.8 µM; in the experiment on OVCAR-8, 83 µM (inactive); in the experiment with OVCAR-5, > 100 µM (inactive); with UACC-62, 57.9 µM (inactive); in the experiment with NCI-H23 it was 46.2 µM (inactive); with HCT-116 it was 39 µM (inactive). The GI50 in the experiment with RXF 393 and in the experiment on MDA-N was > 100 µM (inactive) in each case.

As to `CC(=O)/C=N/CC(=O)O`, the GI50 in the experiment on MDA-MB-435, in the experiment on SF-539, in the experiment on NCI/ADR-RES, with SR, in the experiment with DU-145 and in the experiment with EKVX was > 100 µM (inactive) in each case. In addition, the GI50 in the experiment on BT-549, in the experiment with ACHN, with SF-268, in the experiment on SK-MEL-2, in the experiment on SF-295 and in the experiment with Malme-3M was > 100 µM (inactive) each time. In addition, the GI50 in the experiment with HCT-15 was above 100 µM; in the experiment with OVCAR-8, > 100 µM (inactive); in the experiment on OVCAR-5, > 100 µM (inactive); in the experiment on UACC-62, > 100 µM (inactive); in the experiment with NCI-H23, > 100 µM (inactive); in the experiment with HCT-116, > 100 µM (inactive). The GI50 in the experiment on RXF 393 and with MDA-N was > 100 µM (inactive) each time.

Regarding `O=C1c2ccccc2-c2cc([N+](=O)[O-])c([N+](=O)[O-])cc21`, the GI50 in the experiment on MDA-MB-435 is 1.65 µM (inactive); in the experiment on SF-539, 0.485 µM (active); in the experiment on NCI/ADR-RES, 2.81 µM (inactive); with SR, 0.13 µM (active); with DU-145, 1.77 µM (inactive); with EKVX, 2.04 µM (inactive). Further, the GI50 is 1.92 µM (inactive) in the experiment with BT-549; 1.68 µM (inactive) with ACHN; 2.18 µM (inactive) in the experiment with SF-268; 1.87 µM (inactive) in the experiment on SK-MEL-2; 1.65 µM (inactive) with SF-295; 1.91 µM (inactive) with Malme-3M. In addition, the GI50 in the experiment with HCT-15 is 1.78 µM; in the experiment on OVCAR-8 it was 1.64 µM (inactive); in the experiment with OVCAR-5, 2.18 µM (inactive); in the experiment with UACC-62, 1.66 µM (inactive); with NCI-H23, 1.91 µM (inactive); in the experiment with HCT-116, 1.94 µM (inactive). The GI50 is 1.33 µM (inactive) in the experiment with RXF 393 and 2.35 µM (inactive) in the experiment with MDA-N.

Regarding `N#C/C(=C\c1c[nH]c2ccccc12)C(=O)c1ccc(O)c(O)c1`, the GI50 is 20.8 µM (inactive) in the experiment on MDA-MB-435; 25.6 µM (inactive) in the experiment on SF-539; 20.5 µM (inactive) in the experiment with NCI/ADR-RES; 9.82 µM (inactive) with SR; 27.4 µM (inactive) with DU-145; 34.8 µM (inactive) in the experiment with EKVX. Further, the GI50 in the experiment on BT-549 is 11.1 µM (inactive); in the experiment with ACHN, 27.8 µM (inactive); in the experiment with SF-268, 39.7 µM (inactive); with SK-MEL-2, > 36.7 µM (inactive); in the experiment with SF-295, 14.6 µM (inactive); in the experiment with Malme-3M, > 47.9 µM (inactive). For the same molecule, the GI50 in the experiment with HCT-15 is 22.9 µM; with OVCAR-8, 38.5 µM (inactive); with OVCAR-5, 33 µM (inactive); with UACC-62 it was 28.8 µM (inactive); in the experiment with NCI-H23, 45.8 µM (inactive); in the experiment on HCT-116, 31.4 µM (inactive). Moreover, the GI50 is 38.9 µM (inactive) in the experiment with RXF 393 and 47.1 µM (inactive) in the experiment on MDA-N.
